Source: US8921360B2, “Heterobicycle-substituted azolyl benzene fungicides” (priority 2009, dated 2014)

What was measured:
Format in all cases: in vivo
Alternaria solani = assay: Test G: tomato early blight, preventive spray on tomato seedlings; conditions: 200 ppm; tomato seedlings sprayed to run-off, inoculated next day, rated after 48 h + 5 days
Text: General protocol for preparing test suspensions for Tests A-G: the test compounds were first dissolved in acetone in an amount equal to 11% of the final volume and then suspended at the desired concentration (in ppm) in acetone and purified water (50/50 mix by volume) containing 250 ppm of the surfactant Trem® 014 (polyhydric alcohol esters). The resulting test suspensions were then used in Tests A-G. Spraying a 200 ppm test suspension to the point of run-off on the test plants was the equivalent of a rate of 800 g/ha. The test suspension was sprayed to the point of run-off on tomato seedlings. The following day the seedlings were inoculated with a spore suspension of Alternaria solani (the causal agent of tomato early blight) and incubated in a saturated atmosphere at 27° C. for 48 h, and then moved to a growth chamber at 24° C. for 5 days, after which time disease ratings were visually made. Results for Tests A-G are given in Table A. In the Table, a rating of 100 indicates 100% disease control and a rating of 0 indicates no disease control (relative to the controls). A dash (-) indicates no test results. All results are for 200 ppm except where followed by an “*”, which indicates 40 ppm.

[1] = system: Erysiphe graminis f. sp. tritici; assay: Test A: wheat powdery mildew, preventive spray on wheat seedlings; conditions: 200 ppm; wheat seedlings sprayed to run-off, inoculated next day, rated after 8 days; 100 = 100% disease control, 0 = no control
Text: General protocol for preparing test suspensions for Tests A-G: the test compounds were first dissolved in acetone in an amount equal to 11% of the final volume and then suspended at the desired concentration (in ppm) in acetone and purified water (50/50 mix by volume) containing 250 ppm of the surfactant Trem® 014 (polyhydric alcohol esters). The resulting test suspensions were then used in Tests A-G. Spraying a 200 ppm test suspension to the point of run-off on the test plants was the equivalent of a rate of 800 g/ha. The test suspension was sprayed to the point of run-off on wheat seedlings. The following day the seedlings were inoculated with a spore dust of Erysiphe graminis f. sp. tritici, (the causal agent of wheat powdery mildew) and incubated in a growth chamber at 20° C. for 8 days, after which time disease ratings were visually made. Results for Tests A-G are given in Table A. In the Table, a rating of 100 indicates 100% disease control and a rating of 0 indicates no disease control (relative to the controls). A dash (-) indicates no test results. All results are for 200 ppm except where followed by an “*”, which indicates 40 ppm.

[2] = system: Puccinia recondita f sp. tritici; assay: Test B: wheat leaf rust, preventive spray on wheat seedlings; conditions: 200 ppm; wheat seedlings sprayed to run-off, inoculated next day, rated after 24 h + 7 days
Text: General protocol for preparing test suspensions for Tests A-G: the test compounds were first dissolved in acetone in an amount equal to 11% of the final volume and then suspended at the desired concentration (in ppm) in acetone and purified water (50/50 mix by volume) containing 250 ppm of the surfactant Trem® 014 (polyhydric alcohol esters). The resulting test suspensions were then used in Tests A-G. Spraying a 200 ppm test suspension to the point of run-off on the test plants was the equivalent of a rate of 800 g/ha. The test suspension was sprayed to the point of run-off on wheat seedlings. The following day the seedlings were inoculated with a spore suspension of Puccinia recondita f sp. tritici (the causal agent of wheat leaf rust) and incubated in a saturated atmosphere at 20° C. for 24 h, and then moved to a growth chamber at 20° C. for 7 days, after which time disease ratings were visually made. Results for Tests A-G are given in Table A. In the Table, a rating of 100 indicates 100% disease control and a rating of 0 indicates no disease control (relative to the controls). A dash (-) indicates no test results. All results are for 200 ppm except where followed by an “*”, which indicates 40 ppm.

Botrytis cinerea = assay: Test F: tomato botrytis, preventive spray on tomato seedlings; conditions: 200 ppm; tomato seedlings sprayed to run-off, inoculated next day, rated after 48 h + 3 days
Text: General protocol for preparing test suspensions for Tests A-G: the test compounds were first dissolved in acetone in an amount equal to 11% of the final volume and then suspended at the desired concentration (in ppm) in acetone and purified water (50/50 mix by volume) containing 250 ppm of the surfactant Trem® 014 (polyhydric alcohol esters). The resulting test suspensions were then used in Tests A-G. Spraying a 200 ppm test suspension to the point of run-off on the test plants was the equivalent of a rate of 800 g/ha. The test suspension was sprayed to the point of run-off on tomato seedlings. The following day the seedlings were inoculated with a spore suspension of Botrytis cinerea (the causal agent of tomato botrytis) and incubated in saturated atmosphere at 20° C. for 48 h, and then moved to a growth chamber at 27° C. for 3 additional days, after which time disease ratings were visually made. Results for Tests A-G are given in Table A. In the Table, a rating of 100 indicates 100% disease control and a rating of 0 indicates no disease control (relative to the controls). A dash (-) indicates no test results. All results are for 200 ppm except where followed by an “*”, which indicates 40 ppm.

Septoria tritici = assay: Test E: wheat leaf blotch, preventive spray on wheat seedlings; conditions: 200 ppm; wheat seedlings sprayed to run-off, inoculated next day, rated after 48 h + 19 days
Text: General protocol for preparing test suspensions for Tests A-G: the test compounds were first dissolved in acetone in an amount equal to 11% of the final volume and then suspended at the desired concentration (in ppm) in acetone and purified water (50/50 mix by volume) containing 250 ppm of the surfactant Trem® 014 (polyhydric alcohol esters). The resulting test suspensions were then used in Tests A-G. Spraying a 200 ppm test suspension to the point of run-off on the test plants was the equivalent of a rate of 800 g/ha. The test suspension was sprayed to the point of run-off on wheat seedlings. The following day the seedlings were inoculated with a spore suspension of Septoria tritici (the causal agent of wheat leaf blotch) and incubated in a saturated atmosphere at 24° C. for 48 h, and then moved to a growth chamber at 20° C. for 19 days, after which time disease ratings were visually made. Results for Tests A-G are given in Table A. In the Table, a rating of 100 indicates 100% disease control and a rating of 0 indicates no disease control (relative to the controls). A dash (-) indicates no test results. All results are for 200 ppm except where followed by an “*”, which indicates 40 ppm.

Septoria nodorum = assay: Test D: wheat glume blotch, preventive spray on wheat seedlings; conditions: 200 ppm; wheat seedlings sprayed to run-off, inoculated next day, rated after 48 h + 7 days
Text: General protocol for preparing test suspensions for Tests A-G: the test compounds were first dissolved in acetone in an amount equal to 11% of the final volume and then suspended at the desired concentration (in ppm) in acetone and purified water (50/50 mix by volume) containing 250 ppm of the surfactant Trem® 014 (polyhydric alcohol esters). The resulting test suspensions were then used in Tests A-G. Spraying a 200 ppm test suspension to the point of run-off on the test plants was the equivalent of a rate of 800 g/ha. The test suspension was sprayed to the point of run-off on wheat seedlings. The following day the seedlings were inoculated with a spore suspension of Septoria nodorum (the causal agent of wheat glume blotch) and incubated in a saturated atmosphere at 20° C. for 48 h, and then moved to a growth chamber at 20° C. for 7 days, after which time disease ratings were visually made. Results for Tests A-G are given in Table A. In the Table, a rating of 100 indicates 100% disease control and a rating of 0 indicates no disease control (relative to the controls). A dash (-) indicates no test results. All results are for 200 ppm except where followed by an “*”, which indicates 40 ppm.

[3] = system: Puccinia recondita f. sp. tritici; assay: Test C: wheat leaf rust, spray the day after inoculation of wheat seedlings; conditions: 200 ppm; wheat seedlings inoculated, sprayed the following day, rated after 5 days;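 further: Curative spray on infected wheat seedlings with visual rating 5 days later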
Text: General protocol for preparing test suspensions for Tests A-G: the test compounds were first dissolved in acetone in an amount equal to 11% of the final volume and then suspended at the desired concentration (in ppm) in acetone and purified water (50/50 mix by volume) containing 250 ppm of the surfactant Trem® 014 (polyhydric alcohol esters). The resulting test suspensions were then used in Tests A-G. Spraying a 200 ppm test suspension to the point of run-off on the test plants was the equivalent of a rate of 800 g/ha. Wheat seedlings were inoculated with a spore suspension of Puccinia recondita f. sp. tritici (the causal agent of wheat leaf rust) and incubated in a saturated atmosphere at 20° C. for 24 h. The following day, the test suspension was sprayed to the point of run-off on the wheat seedlings and then moved to a growth chamber at 20° C. for 5 days, after which time disease ratings were visually made. Results for Tests A-G are given in Table A. In the Table, a rating of 100 indicates 100% disease control and a rating of 0 indicates no disease control (relative to the controls). A dash (-) indicates no test results. All results are for 200 ppm except where followed by an “*”, which indicates 40 ppm.

| SMILES | Percentage Disease Control Test G (Alternaria solani) | Percentage Disease Control Test A [1] | Percentage Disease Control Test B [2] | Percentage Disease Control Test F (Botrytis cinerea) | Percentage Disease Control Test E (Septoria tritici) | Percentage Disease Control Test D (Septoria nodorum) | Percentage Disease Control Test C [3] |
| --- | --- | --- | --- | --- | --- | --- | --- |
| COC(=O)NCc1cc(-n2ccc(-c3ccc4c(c3)OCCO4)n2)ccc1F [Compound 10] | 84% | 100% | 100% | 94% | 98% | 100% | 100% |
| COC(=O)NCc1cc(-n2ccc(-c3ccc4c(c3)NC(=O)CO4)n2)ccc1F [Compound 14] | 0% | 0% | 54% | 0% | 44% | 0% | 0% |
| COC(=O)NCc1cc(-c2ccn(-c3ccc4c(c3)N(C)C(=O)CO4)n2)ccc1F [Compound 13] | 54% | 90% | 100% | 7% | 24% | 97% | 28% |
| COC(=O)NCc1cc(-c2ccn(-c3ccc4c(c3)CCCO4)n2)ccc1Br [Compound 16] | 85% | 100% | 100% | 99% | 100% | 100% | 100% |
